The source of these data is US7105652B2, “Human tumor suppressor gene” (Garvan Institute of Medical Research, priority 1997, dated 2006).

“Also recorded” adds a separate entry of the source. Numbered stars: 1 amine (or outer) side, 2 acyl side, 3 side chain; on linkers, the order of the positions; unused ones are H or OH. Bridge positions count the residues as written; N and C are the ends. Square brackets hold non-standard residues; d marks the D form. Peptide text beside a SMILES is read from it. I, II: the chains in the order shown. Actinocin(9to1) = Cc1c2oc3c(C)ccc(C(=O)[*:1])c3nc-2c(C(=O)[*:2])c(N)c1=O; NMeV = CN[C@H](C(=O)O)C(C)C; Sar = CNCC(=O)O

One assay concerns T-47D cells. As to conditions: ORG 2058, same conditions, reference (3); cited from earlier work.
In another assay the test system is EDD mRNA. Description: Northern analysis of EDD mRNA in progestin-treated T-47D cells. The class given is cell-based, human. The protocol:
(§1) The sources and maintenance of the human breast cancer and normal cell lines used were as described previously (12, 22), as were tissue culture experiments (12). Briefly, progestin (ORG 2058, 10 nM) and/or cycloheximide (20 μg/ml) or actinomycin D (5 μg/ml) was added to the medium and control flasks received the same volume of vehicle alone. To obtain RNA for differential display, cells were grown in insulin-supplemented serum-free medium and treated for 3 h with ORG 2058 or ethanol vehicle. Subsequent progestin stimulation experiments were carried out in medium containing 5% charcoal-stripped fetal calf serum without insulin.
Cells harvested from duplicate 150 cm^2 flasks were pooled, RNA extracted by a guanidinium-isothiocyanate-cesium chloride procedure and Northern analysis was performed as previously described with 20 μg of total RNA per lane (3, 23). The membranes were hybridized overnight (50° C.) with probes labelled with [a-^32P]dCTP (Amersham Australia Pty Ltd) using a Prime-a-Gene labelling kit (Promega Corp., Sydney, Australia). The membranes were washed at a highest stringency of 0.2 ¥ SSC (30 mM NaCl, 3 minN sodium citrate [pH 7.0])/1% sodium dodecyl sulfate at 65° C. and exposed to Kodak X-OMAT or BIOMAX film at −70° C. Human multiple tissue Northern blots or RNA Master blot (CLONTECH Laboratories Inc., Palo Alto, Calif.) were hybridized under conditions recommended by the manufacturer. The MRNA abundance was quantitated by densitometric analysis of autoradiographs using Molecular
Dynamics Densitometer and software (Molecular Dynamics, Sunnyvale, Calif.). The accuracy of loading was estimated by re-hybridizing membranes with a [g-^32P]ATP end-labelled oligonucleotide complementary to 18S rRNA (24, 25).

The test system of another assay is EDD. Description: Differential display RT-PCR of T-47D cells treated with ORG 2058. Format: cell-based, human. The following applies: ORG 2058 for 3 h. As for the experimental part:
as §1
Differential display was carried out as previously described (11) using a Heiroglyph mRNA Profile Kit No. 1 (Genomyx Corporation, Foster City, Calif.) and recommended protocol. First strand cDNA synthesis was carried out in 96-well format 0.2 ml thin walled tubes. Typically 200 ng total RNA from T-47D cells treated with the synthetic progestin ORG 2058 for 3 h or from control T-47D cells was reverse transcribed with Expand Reverse Transcriptase enzyme (Boehringer Mannheim Pty Ltd, Castle Hill, Australia) following annealing with 4 pmol anchored primer (5′[…]12AC (SEQ ID NO:6)). […] The PCR products were denatured and separated on a 4.5% denaturing polyacrylamide gel at 800 v for 16 h using the Genomyx Long Read Sequencing System reagents and apparatus. […]

Assay [1] has as its target T1, GST-ubiquitin fusion protein (Homo sapiens, UniProt P0CG47).
T1 construct: purified GST-ubiquitin fusion protein
Put plainly: Ubiquitin-binding assay (thiol ester formation). The class given is biochemical. As to conditions: in vitro translated 35S-labelled protein, absence of DTT; abolished by 100 mM DTT.
Experimental: [^35S]-labelled in vitro translated truncated (˜100 kDa) or full length protein was tested for its ability to bind ubiquitin by incubating 5 μl translation reaction with or without 5 μg purified GST protein or GST-ubiquitin fusion protein for 10 min at 25° C. […] Reactions were terminated by incubating the mixtures in either SDS-sample buffer containing 100 mM DTT at 95° C. for 5 min or in SDS-sample buffer containing 4 M urea instead of DTT at 25° C. for 20 min. Samples were resolved by SDS-PAGE through 6% or 7% gels followed by drying and autoradiography.

As to `CCC1CC2C3CCC4=CC(=O)CCC4C3CCC2(C)C1C(=O)CO` (stereo not drawn) [ORG 2058, 16a-ethyl-21-hydroxy-19-norpregn-4-en-3,20-dione], the “time of increase in the S phase fraction” value in the assay on T-47D cells is 12 to 14 h. In the assay with EDD mRNA (progestin (ORG 2058), observed at 6 h, transient), the “maximal EDD mRNA levels above control” value was in the range of 3 to 4 fold. Also, the “abundance of EDD DD-PCR product, treated versus control” value in the assay on EDD is “more abundant in treated samples than in control samples; also recorded: present at a higher level”.
For `Cc1c2oc3c(C)ccc(C(=O)N[C@@H]4C(=O)N[C@H](C(C)C)C(=O)N5CCC[C@H]5C(=O)N(C)CC(=O)N(C)[C@@H](C(C)C)C(=O)O[C@@H]4C)c3nc-2c(C(=O)N[C@@H]2C(=O)N[C@H](C(C)C)C(=O)N3CCC[C@H]3C(=O)N(C)CC(=O)N(C)[C@@H](C(C)C)C(=O)O[C@@H]2C)c(N)c1=O` [actinomycin D, Actinomycin D] (I: T[dV]P[Sar][NMeV] / II: T[dV]P[Sar][NMeV]; ester I:1-I:C, II:1-II:C; linker I:N-II:N via Actinocin(9to1)), the “effect on ORG 2058 induction of EDD mRNA levels” value in the assay on EDD mRNA (10 nM ORG 2058 with actinomycin D (5 μg/ml), 3 h) is “blocked”.
In the case of `C[C@@H]1C[C@@H]([C@H](O)CC2CC(=O)NC(=O)C2)C(=O)[C@@H](C)C1` [cycloheximide, Cycloheximide], the “effect on ORG 2058 induction of EDD mRNA levels” value with EDD mRNA (10 nM ORG 2058 with cycloheximide (20 μg/ml), 1 h) is “prevented”.

B1: truncated EDD: 890 amino acid truncated EDD protein, aa 1910 to aa 2799, carboxyl terminus with HECT domain (protein)
chain: MMSARGDFLNYALSLMRSHNDEHSDVLPVLDVCSLKHVAYVFQALIYWIKAMNQQTTLDTPQLERKRTRELLELGIDNEDSEHENDDDTNQSATLNDKDDDSLPAETGQNHPFFRRSDSMTFLGCIPPNPFEVPLAEAIPLADQPHLLQPNARKEDLFGRPSQGLYSSSASSGKCLMEVTVDRNCLEVLPTKMSYAANLKNVMNMQNRQKKEGEEQPVLPEETESSKPGPSAHDLAAQLKSSLLAEIGLTESEGPPLTSFRPQCSFMGMVISHDMLLGRWRLSLELFGRVFMEDVGAEPGSILTELGGFEVKESKFRREMEKLRNQQSRDLSLEVDRDRDLLIQQTMRQLNNHFGRRCATTPMAVHRVKVTFKDEPGEGSGVARSFYTAIAQAFLSNEKLPNLECIQNANKGTHTSLMQRLRNRGERDREREREREMRRSSGLRAGSRRDRDRDFRRQLSIDTRPFRPASEGNPSDDPEPLPAHRQALGERLYPRVQAMQPAFASKITGMLLELSPAQLLLLLASEDSLRARVDEAMELIIAHGRENGADSILDLGLVDSSEKVQQENRKRHGSSRSVVDMDLDDTDDGDDNAPLFYQPGKRGFYTPRPGKNTEARLNCFRNIGRILGLCLLQNELCPITLNRHVIKVLLGRKVNWHDFAFFDPVMYESLRQLILASQSSDADAVFSAMDLAFAIDLCKEEGGGQVELIPNGVNIPVTPQNVYEYVRKYAEHRMLVVAEQPLHAMRKGLLDVLPKNSLEDLTAEDFRLLVNGCGEVNVQMLISFTSFNDESGENAEKLLQFKRWFWSIVEKMSMTERQDLVYFWTSSPSLPASEEGFQPMPSITIRPPDDQHLPTANTCISRLYVPLYSSKQILKQKLLLAIKTKNFGFV
Consider B1, for which the “formation of GST-ubiquitin / ubiquitin thioester conjugate” value in assay [1] is recorded as “an additional higher molecular mass protein band was observed”.
